In data set [1] the test system is kaolin-induced oedema. The data set is described as follows: Inhibition of kaolin-induced oedema. Particulars: 2 hours. It is filed as in vivo. The method, then:
(§1) Inhibition of Kaolin- and carrageenin-induced oedema
(§2) The tests were carried out on groups each consisting of at least 10 animals. The percentage inhibition of oedema, in relation to the untreated controls, was determined for each of the animals, and the average values were calculated.

Data set [2] is described as follows: Determination of ulcer index.
The test system of data set [3] is carrageenin-induced oedema. The data set is described as follows: Inhibition of carrageenin-induced oedema. It is filed as in vivo. Particulars: 1.5 hours. The method, then:
as §1, §2
For orientation: In the carrageenan paw model, swelling and tenderness develop within hours.

Data set [4] concerns Cotton granuloma. The data set is described as follows: Cotton granuloma test. The conditions noted are these: 100 mg./kg. It is filed as in vivo.
Data set [5] in a line: Acute toxicity tests. The format is in vivo. Particulars: rat, in vivo, po; rats, Litchfield-Wildoxon method. The method, then: The acute toxicity values of the compounds were determined on rats, after oral administration. The LD50 values were calculated according to the Litchfield-Wildoxon method.
Data set [6] has as its system experimentally provoked fever. The data set is described as follows: Antipyretic activity (experimentally provoked fever). Particulars: 25 mg./kg. p.o. It is filed as in vivo. Also on record: unit not given here. The text has this:
Besides their antiphlogistic activities, some of the benzo(a)quinolizidine derivatives exert antipyretic effects as well. On the basis of the tests performed on experimentally provoked fever, the antipyretic activities of the compounds according to the invention surpass the effect of amidazophenum.

Data set [7] is described as follows: Inhibition of kaolin-induced oedema. The format is in vivo. The conditions noted are these: in vivo; LD50/ED50; read-out: Therapeutical index LD50/ED50, kaolin-oedema. The method, then:
as §1, §2

A short description of data set [8]: Inhibition of carrageenin-induced oedema. It is filed as in vivo. Particulars: in vivo; LD50/ED50; read-out: Therapeutical index LD50/ED50, carrageenin-oedema. Here is the method:
as §1, §2

In data set [9] the test system is serotonine-induced oedema. The data set is described as follows: Tests performed on serotonine-induced oedema. The format is in vivo. Here is the method: Tests performed on serotonine-induced oedema
The tests were carried out on groups each consisting of 10 animals. The percentage inhibition of oedema, in relation to the untreated controls, was determined for each of the animals. The data listed in Table 3 are the averages of the inhibition values.

The subject of data set [10] is central nervious system. The data set is described as follows: Narcosis potentiating effect. It is filed as in vivo.
Data set [11] can be described thus: Analgesic effect by the hot-plate test. The format is in vivo. The conditions noted are these: 50 mg./kg. p.o. In general terms: In hot-plate and tail-flick tests a longer latency is read as antinociception.

As for `O=C(O)c1ccccc1O` [Na-salicylate, reference compound], the “Inhibition of kaolin-induced oedema 2 hours after administration” value in data set [1] (100 mg./kg. p.o.) is 10.5%. Moreover, in [2] (female), the Erosion is 3/10 and the Ulcer is 2/10. Also, in data set [2] (male), the Erosion was 1/10 and the Ulcer is given as 4/10. For the same molecule, the “Inhibition of carrageenin-induced oedema 1.5 hours after administration” value in [3] (100 mg./kg. p.o.) was 16.2%. Besides, in [4], the “Effect, % (cotton granuloma test)” value was found to be 25.5%.
Regarding `CC(=O)Oc1ccccc1C(=O)O` [Aspirin, reference compound], the LD50 in data set [5] worked out at 1700 mg/kg.
In the case of `Cc1c(N(C)C)c(=O)n(-c2ccccc2)n1C` [Amidazophenum], the “Variation of body temperature” value in data set [6] (1 hour after administration) was -1.17; in data set [6] (2 hours after administration), -0.94; in data set [6] (3 hours after administration), -0.95.
As to `COc1cc2c(cc1OC)C1CC(=O)C(CCC#N)CN1CC2` (stereo not drawn) [SCT-1, 2-Oxo-3-(β-cyano-ethyl)-9,10-dimethoxy-1,2,3,4,6,7-hexahydro-11bH-benzo(a)quinolizidine], the selectivity ratio was 12.4 in data set [7] and 6.7 in data set [8]. The “Inhibition of kaolin-induced oedema 2 hours after administration” value in [1] (25 mg./kg. p.o.) is listed as 20.5%; in data set [1] (50 mg./kg. p.o.), 21.4%; in data set [1] (75 mg./kg. p.o.), 24.8%; in data set [1] (100 mg./kg. p.o.), 47.8%. In addition, the Erosion in [2] (female) is reported as 4/10; in data set [2] (male), 3/10. The Ulcer in data set [2] (female) is listed as 2/10; in data set [2] (male), 1/10. Also, the “Inhibition of carrageenin-induced oedema 1.5 hours after administration” value in data set [3] (50 mg./kg. p.o.) stood at 24.2%; in [3] (75 mg./kg. p.o.), 25.7%; in [3] (100 mg./kg. p.o.) it was 37.7%. The “Percentage inhibition 1 hour after administration (serotonine-induced oedema)” value (“Percentage inhibition 1 hour” below) in data set [9] (50 mg./kg. p.o.) was found to be 22.4%; in data set [9] (100 mg./kg. p.o.) it was 57.8%. The “Prolongation of the sleep period in relation to the untreated controls, %” value (from here on “Prolongation of the sleep period in relation … %”) in data set [10] (25 mg./kg. p.o.) is 132.8%; in [10] (50 mg./kg. p.o.), 207.6%. Further, the LD50 in data set [5] came out at 620 mg/kg.
In the case of `COC(=O)CCC1CN2CCc3cc(OC)c(OC)cc3C2CC1=O` (stereo not drawn) [SCT-2, 2-Oxo-3-(β-methoxycarbonyl-ethyl)-9,10-dimethoxy-1,2,3,4,6,7-hexahydro-11bH-benzo(a)quinolizidine], the “Prolongation of the reaction time, % (2 hours after administration)” value in [11] is given as 26.4%. Moreover, the “Inhibition of kaolin-induced oedema 2 hours after administration” value came out at 5.8% in [1] (25 mg./kg. p.o.), 21.4% in data set [1] (50 mg./kg. p.o.) and 24.7% in data set [1] (75 mg./kg. p.o.). The entries for the “Inhibition of carrageenin-induced oedema 1.5 hours after administration” value in data set [3] (50 mg./kg. p.o.), in [3] (75 mg./kg. p.o.) and in data set [3] (100 mg./kg. p.o.) were 14.3%, 2.8% and 17.0%, respectively. Also, in data set [9] (100 mg./kg. p.o.), the “Percentage inhibition 1 hour” value is on record as 16.0%. Also, the “Prolongation of the sleep period in relation … %” value in data set [10] (50 mg./kg. p.o.) is 28.3%.
For the molecule `CCCC(C)(COC(N)=O)COC(N)=O` [Meprobamate, reference compound], the “Prolongation of the sleep period in relation … %” value in [10] (20 mg./kg. p.o.) is on record as 110.2%.
As to `CCOc1cc2c(cc1OCC)C1CC(=O)C(CCC#N)CN1CC2` (stereo not drawn) [SCT-3, 2-Oxo-3-(β-cyano-ethyl)-9,10-diethoxy-1,2,3,4,6,7-hexahydro-11bH-benzo(a)quinolizidine], in data set [11], the “Prolongation of the reaction time, % (2 hours after administration)” value came out at 33.9%. The selectivity ratio came out at 15 in data set [7] and 19.8 in [8]. The “Inhibition of kaolin-induced oedema 2 hours after administration” value in [1] (25 mg./kg. p.o.) was determined as 17.3%; in data set [1] (50 mg./kg. p.o.), 19.4%; in data set [1] (75 mg./kg. p.o.), 48.9%; in data set [1] (100 mg./kg. p.o.), 45.9%. Moreover, the Erosion in data set [2] (female) is 4/10; in data set [2] (male), 6/10. Moreover, the Ulcer in [2] (female) is 0/10; in [2] (male), 1/10. Also, the “Inhibition of carrageenin-induced oedema 1.5 hours after administration” value in data set [3] (25 mg./kg. p.o.) was 25.1%; in data set [3] (50 mg./kg. p.o.) it was 41.5%; in data set [3] (100 mg./kg. p.o.), 53.7%. For the same molecule, the “Percentage inhibition 1 hour” value in data set [9] (50 mg./kg. p.o.) stood at 36.2%; in data set [9] (100 mg./kg. p.o.) it was 47.0%. The “Prolongation of the sleep period in relation … %” value was determined as 131.7% in [10] (25 mg./kg. p.o.) and 240.2% in data set [10] (50 mg./kg. p.o.). In addition, the LD50 in data set [5] was 780 mg/kg.

One may read the LD50 as the dose expected to kill half of the subjects tested.

(Values after patent publication US4102886A, “Process for the preparation of benzo(a)quinolizidine derivatives” (priority 1974, dated 1978).)
